Patent US8952025B2, “Multifunctional radical quenchers and their uses” (Arizona Board of Regents, A Body Corporate of the State of …, priority 2010, dated 2015)
“Also recorded” adds a separate entry of the source.

Key:
[1] = tested on: CEM cells; assay: Reactive oxygen species (ROS) assay, DCFH-DA, DEM-treated cells; assay type: cell-based, human; details: for suppression of ROS (DCFH-DA): 0.25 μM for 15 hours, DEM 40 min, CCRF-CEM cells
Source text: Cellular ROS production can be monitored using 2′,7′-dichlorodihydrofluorescein diacetate (DCFH-DA) (LeBel et al. (1992) Chem. Res. Toxicol. 5, 227-231) (Molecular Probes, Eugene, Oreg., USA), a membrane permeable and oxidant-sensitive fluorescent dye. DCFH-DA is a non-fluorescent derivative of fluorescein that emits fluorescence after being oxidized by hydrogen peroxide and other ROS. The emitted fluorescence is directly proportional to the concentration of hydrogen peroxide. DCFH-DA is nonionic and nonpolar and is easily taken up by cells. Once inside the cell, DCFH-DA is hydrolyzed by cellular esterases to non-fluorescent DCFH which traps the dye in the cell. In the presence of ROS including hydrogen peroxide, DCFH is oxidized to the highly fluorescent compound dichlorofluorescein (DCF). The intracellular DCF fluorescence is used as an index of cellular ROS production.
Cellular oxidative stress was induced by pharmacological depletion of glutathione (GSH) using the chemical diethylmaleate (DEM). ROS production was assessed by monitoring DCF fluorescence. Leukemic CEM cells (ATCC®, catalogue number CRL-2264) were cultured in RPMI (GIBCO, Grand island, N.Y., USA) with 10% FCS, 2 mM glutamine (HyClone, South Logan, Utah, USA) and 1% penicillin-streptomycin mix antibiotics (Cellgro, Manassan, Va., USA) supplements. Cells were maintained in the log phase at a concentration of between 1×10^5 and 1×10^6 cells/mL. CEM cells (1×10^6 cell/mL) were plated (1 mL) in twelve well plate and treated with the invention compounds (final concentration 1 and 5 μM), and incubated for two hours at 37° C., 5% CO2. The compounds tested were prepared by first making stock solutions (2.5 mM) in dimethylsulfoxide (DMSO). Cells were treated with 5 mM DEM for 30 minutes and collected by centrifugation at 300×g for 3 min and then washed twice with Hanks' Balanced Salt Solution (HSSB) buffer (Sigma, St. Louis, Mo. USA). Cells were resuspended in HSSB buffer+10 mM glucose and incubated at 37° C. in the dark for 20 min with 10 μM DCFH-DA. Cells were collected by centrifugation at 300×g for 3 min and then washed twice with HSSB buffer. The samples were analyzed immediately by flow cytometry (Becton-Dickinson FACS Caliber), (Cell Quest software, BD Biosciences) using 488 nm excitation laser and FL1-H channel 538 nm emission filter. In each analysis, 10,000 events were recorded after cell debris were electronically gated out. Results obtained were verified by repeating experiments N=3 independent experiments. Authentic hydrogen peroxide was used as a positive control.

[2] = C11-BODIPY581/591 oxidation lipid peroxidation assay in liposomes; details: 10 mM AAPH, phospholipid liposomes, phosphate buffer, 40° C.
Method: To overcome the problem of spectral overlap using cis-parinaric acid, a fluorescence assay for lipid peroxidation using a lipophilic probe belonging to the BODIPY class of fluorescent dyes was used. C11-BODIPY^581/591 (4,4-difluoro-5(4-phenyl-1,3-butadienyl)-4-bora-3a,4a-diaza-s-indacene-3-propionic acid) fluorescence shifts from red to green upon oxidation. C11-BODIPY^581/591 (Molecular Probes, Eugene, Oreg., USA) stock solution concentrations were determined by measuring the absorption of C11-BODIPY^581/591 at 582 nm using a molar extinction coefficient of 140,000 mol^−1 cm^−1(R. P. Haugland, (1999) Handbook of Fluorescent Probes and Research Chemicals, Molecular Probes, Inc., Eugene, Oreg.). The lipid peroxidation inducer 2,2′-Azobis (2-amidino-propane dihydrochloride) (AAPH) and the antioxidant compound α-tocopherol were obtained from Sigma (St. Louis, Mo., USA). Phospholipid bilayers were prepared from 1-stearoyl-2-oleoyl-phosphatidylcholine (SOPC) and 1,2-dilinoleoyl-phosphatidylcholine (DLPC) and were purchased from Avanti® polar lipids, INC (Alabaster, Ala., USA).
Phosphotidylcholine (PC) liposomes were prepared as described before (Guey-Shuang et al. (1982) Lipids. 17, 403-413). Briefly, DLPC (25 mg) and SOPC (25 mg) were dissolved in chloroform and the solvent was removed by nitrogen evaporation (˜2 hours to give a thin film of PC in a round bottom flask. The lipid film was hydrated with 50 mL of 10 mM Tris-HCl (pH 7.4), 100 mM KCl, shaken and sonicated for 15 seconds. The liposomes obtained were filtered several times through 0.2 μM membrane filter.
C11 BODIPY^581/591 was incorporated into liposomes and oxidized by peroxyl radicals derived from the decomposition of AAPH in presence and absence of the compounds. […] Liposomes were pre-incubated for 10 min with 200 nM C11 BODIPY^581/591 to allow their incorporation into the lipid phase of the liposomes. After the addition of AAPH (10 mM) the decay of red fluorescence was followed at λ exc=570 nm, λ em=600 nm. Relative fluorescence units were normalized to 100% intensity. Results obtained were verified by repeating experiments N=3 independent experiments.

[3] = tested on: CEM cells; assay: Trypan blue cell viability assay, DEM-treated cells; assay type: cell-based, human; details: overnight incubation, then 5 mM DEM, 3 h
Method: Cell viability determined by trypan blue exclusion assay: This technique was used to assess the cytoprotective effects of the invention compounds in cultured cells pharmacologically treated to induce cell death by GSH depletion. DEM was used to deplete cellular GSH and induce oxidative stress. The viability of DEM-treated CEM cells was determined by their ability to exclude the dye trypan blue. Viable cells exclude trypan blue; whereas, non-viable cells take up the dye and stain blue. Briefly, CEM cells were grown in RPMI 1640 medium (GIBCO, Grand island, N.Y., USA) supplemented with 10% fetal calf serum, 2 mM glutamine (HyClone, South Logan, Utah, USA), 1% penicillin-streptomycin mix (Cellgro, Manassan, Va., USA). Cells were seeded at a density of 1×10^6 cells/mL and treated with different concentrations of the invention compounds. Cells were incubated at 37° C. in a humidified atmosphere of 5% CO2 in air for three hours with 5 mM DEM. Cell viability was determined by staining cells with 0.4% trypan blue using a hemacytometer. At least 500 cells were counted for each experimental group. At the time of assay, >95% of DEM-treated cells were trypan blue positive; whereas, in non-DEM treated control cell cultures >95% cells were viable. Cell viability was expressed as the percentage of control. Data are expressed as means±S.E.M (n=3).

[4] = tested on: CEM leukemia cells; assay: C11-BODIPY581/591 oxidation in cell culture (lipid peroxidation); assay type: cell-based, human; details: 2.5 or 1 μM, pretreatment 4 or 24 hours, glutathione depleted
Method: Lipid peroxidation in CEM leukemia cells was detected by utilizing the oxidant-sensitive lipophilic probe C11 BODIPY^581/591. Briefly, CEM cells (5×10^5 cell/mL) were treated with the test compounds at final concentrations of 1 and 2.5 μM, and incubated at 37° C. for 4 or 24 h in a humidified atmosphere containing 5% CO2 in air. Cells were treated with 500 nM C11 BODIPY^581/591 in phenol red-free RPMI-1640 media and incubated at 37° C. in the dark for 30 minutes. The cells were washed twice with phosphate buffered saline and oxidative stress was induced with 5 mM DEM in phenol red-free RPMI-1640 media for 90 minutes. Treated cells were collected by centrifugation at 300×g for 3 minutes and then washed twice with phosphate buffered saline. Cells were resuspended in 250 μL of phosphate buffered saline and were analyzed by FACS (FACS Calibur flow cytometer, Becton Dickinson) to monitor the change in intensity of the C11 BODIPY^581/591-green (oxidized) fluorescence signal.

[5] = tested on: Human CEM leukemia cells; assay: Live/Dead Viability/Cytotoxicity flow cytometry assay; assay type: cell-based; details: overnight incubation, then DEM 3 hours
Method: Cell viability and cytotoxicity were determined by simultaneous staining live and dead cells using a two-color fluorescence assay, the Live/Dead® Viability/Cytotoxicity Kit (Molecular Probes). This assay is used to measure two recognized parameters of cell viability, intracellular esterase activity and plasma integrity. The membrane-impermeant DNA dye ethidium homodimer-1 (EthD-1) was used to identify dead cells whose plasma membrane integrity was disrupted. The membrane-permeant dye calcein-AM was used to label live cells. It penetrates into the cells where it is metabolized by cytoplasmic esterases and becomes a fluorescent but membrane-impermeant probe which is retained in viable cells. Human CEM leukemia cells were incubated overnight in RPMI medium (control) and in the presence of test compound and then treated with DEM for 3 hours. Cells were stained with 0.2 μM calcein-AM and 0.4 μM EthD-1. After 15 minutes, flow cytometry analysis was carried out using excitation at 488 nm. The green-fluorescent (539 nm) FL1-H channel, live-cell population appears in the lower right quadrant and the red-fluorescent (585 nm) FL2-H channel dead-cell population appears in the upper left quadrant (FIG. 11). In each analysis, 10,000 events were recorded. Results obtained were verified in three independent experiments.

[6] = tested on: CEM leukemia cells; assay: Mitochondrial membrane potential (Δψm) assay, TMRM, FACS; assay type: cell-based, human; details: pretreatment 0.5, 1 or 2.5 μM overnight, DEM
Method: Measurement of Mitochondrial Membrane Potential (Δψm)(FACS). For the determination of Δψm, CEM leukemia cells were pre-treated with or without the test compounds. The cells were treated with 5 mM DEM for 120 minutes, collected by centrifugation at 300×g for 3 minutes and then washed twice with phosphate buffered saline. The cells were re-suspended in HSSB buffer and incubated at 37° C. in the dark for 15 minutes with 250 nM TMRM (a cationic dye which accumulates within mitochondria in accordance with the Δψm Nernst potential). Cells were collected by centrifugation at 300×g for 3 minutes and then washed twice with phosphate buffered saline. The samples were analyzed immediately by flow cytometry using 488 nm excitation laser and the FL2-H channel. The results obtained were verified in three independent experiments. The protonophore FCCP (30 μM) was used to dissipate the chemiosmotic proton gradient (ΔμH^+) and served as a control for loss of Δψm. In each analysis, 10,000 events were recorded.

In the case of COc1c(O)c(C)c(CCCCCCCCCCO)c(O)c1OC [idebenol, reference compound], the “protection against ROS production (DCF fluorescence)” value ([1]; compound 1 μM, 5 mM DEM) is reported as “less effective at this concentration”.

Cc1nc(N)nc(CCCCCCCCCCO)c1O [Example 10, 2-amino-4-(10-hydroxydecyl)-6-methylpyrimidin-5-ol] gave a melting point of 103 to 104 °C.

For Cc1nc(N(C)C)nc(C)c1O [compound 12, 2-N,N-dimethylamino-5-hydroxy-4,6-dimethylpyrimidine], the “quenching of lipid peroxidation (retention of C11-BODIPY581/591 fluorescence)” value [2] was “less active than its counterpart compound A”.

Work on CCCCCc1nc(N(C)C)nc(C)c1O [Compound H, 2-(dimethylamino)-4-methyl-6-pentylpyrimidin-5-ol] yielded a melting point of 61 to 62 °C.

Compound COc1cc(C)c(O)c(CCCCCCCCCCO)n1 [Compound F, 2-(10-hydroxydecyl)-6-methoxy-4-methylpyridin-3-ol] has a melting point of 80 to 81 °C.

For CCCCCCCCCCCCCCCCc1nc(N(C)C)nc(C)c1O [Compound J, 2-(dimethylamino)-4-hexadecyl-6-methylpyrimidin-5-ol], the “suppression of ROS (DCFH-DA)” value [1] was “most effective compounds at suppressing ROS in this assay; also recorded: especially effective” and the melting point was 86 to 87 °C.

With CCCCCCCCCCc1nc(N(C)C)nc(C)c1O [Compound I, 4-decyl-2-(dimethylamino)-6-methylpyrimidin-5-ol] the “suppression of ROS (DCFH-DA)” value [1] was “most effective compounds at suppressing ROS in this assay; also recorded: especially effective” and the melting point was 71 to 72 °C.

In the case of CC(=O)Oc1c(C)nc2c(c1CC[C@](C)(O)CCC[C@H](C)CCC[C@H](C)CCCC(C)C)CCN2C [compound 35, 4-((3R,7R,11R)-3-hydroxy-3,7,11,15-tetramethylhexadecyl)-1,6-dimethyl-2,3-dihydro-1H-pyrrolo[2,3-b]pyridine-5-yl acetate], the “maintaining cell viability (trypan blue exclusion)” value [3] is reported as “both effective in maintaining cell viability following treatment with DEM, with the acetate of compound C being somewhat more effective”.

In the case of Cc1c(C)c2c(c(C)c1O)CCC(C)(C(=O)O)O2 (centres unmarked) [trolox, reference compound], the “protection against lipid peroxidation in cells (C11-BODIPY581/591 green fluorescence)” value [4] is reported as “no protection”, the “protection against ROS production (DCF fluorescence)” value ([1]; 5 μM, pretreatment 4 or 24 h) is reported as “no protection” and the “maintaining cell viability (trypan blue exclusion)” value [3] is reported as “quite ineffective”. For the same compound, the “maintaining cell viability (Live/Dead kit, flow cytometry)” value [5] was “quite ineffective”.

For COc1nc(N(C)C)nc(CCCCCCCCCCO)c1O [Compound D, 2-(dimethylamino)-4-(10-hydroxydecyl)-6-methoxypyrimidin-5-ol], the “suppression of ROS production (DCF fluorescence)” value ([1]; pretreatment 0.5, 1 or 5 μM, DEM) was “most effective compound in suppressing ROS; also recorded: very effective in suppressing ROS”, the “maintaining cell viability (trypan blue exclusion)” value [3] was “quite effective in maintaining cell viability following DEM treatment, with D being the most effective; also recorded: superior to idebenone in maintaining the viability of DEM-treated cells” and the “maintaining mitochondrial membrane potential Δψm” value [6] was “the most effective in maintaining mitochondrial membrane potential; also recorded: very favorable properties”.
